Experimental data as given in article PMC4032265 (PLoS ONE, 2014).
Several values for one entry are separate records, joined by “and”; a condition that tells them apart may be missing. Identical values can stand only once. Like-named read-outs stand apart in the source and are kept apart here.

Tests used:
5HT3 ion channels = biological target: T1, 5HT3 ion channels (Homo sapiens, UniProt P46098); test: PDSP radioligand binding, 5HT3 ion channel; conditions: for inhibition at 10 µM: read-out: % inhibition at 10 µM
T1 sequence (P46098 24-478): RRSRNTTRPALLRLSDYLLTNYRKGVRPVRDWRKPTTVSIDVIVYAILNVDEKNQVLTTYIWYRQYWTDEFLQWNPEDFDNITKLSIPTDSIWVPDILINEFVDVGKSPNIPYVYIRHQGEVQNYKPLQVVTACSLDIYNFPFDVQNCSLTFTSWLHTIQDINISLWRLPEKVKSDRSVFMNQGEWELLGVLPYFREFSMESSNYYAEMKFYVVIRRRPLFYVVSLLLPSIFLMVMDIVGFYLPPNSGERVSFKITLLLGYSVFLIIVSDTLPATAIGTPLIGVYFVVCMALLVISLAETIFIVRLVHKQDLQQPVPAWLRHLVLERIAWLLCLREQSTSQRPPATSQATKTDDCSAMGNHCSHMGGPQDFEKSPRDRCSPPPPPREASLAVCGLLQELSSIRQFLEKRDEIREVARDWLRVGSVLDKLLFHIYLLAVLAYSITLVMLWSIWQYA

D2 dopaminergic receptor = D2 dopaminergic receptor (Homo sapiens, UniProt P14416); test: PDSP radioligand binding, D2; conditions: read-out: % inhibition at 10 µM
α2C adrenergic receptor = biological target: T2, α2C adrenergic receptor (Homo sapiens, UniProt P18825); test: PDSP radioligand binding, α2C; conditions: for inhibition at 10 µM: read-out: % inhibition at 10 µM; for Ki: full concentration-response curves, n = 3-6 unless noted
T2 sequence (P18825 1-462): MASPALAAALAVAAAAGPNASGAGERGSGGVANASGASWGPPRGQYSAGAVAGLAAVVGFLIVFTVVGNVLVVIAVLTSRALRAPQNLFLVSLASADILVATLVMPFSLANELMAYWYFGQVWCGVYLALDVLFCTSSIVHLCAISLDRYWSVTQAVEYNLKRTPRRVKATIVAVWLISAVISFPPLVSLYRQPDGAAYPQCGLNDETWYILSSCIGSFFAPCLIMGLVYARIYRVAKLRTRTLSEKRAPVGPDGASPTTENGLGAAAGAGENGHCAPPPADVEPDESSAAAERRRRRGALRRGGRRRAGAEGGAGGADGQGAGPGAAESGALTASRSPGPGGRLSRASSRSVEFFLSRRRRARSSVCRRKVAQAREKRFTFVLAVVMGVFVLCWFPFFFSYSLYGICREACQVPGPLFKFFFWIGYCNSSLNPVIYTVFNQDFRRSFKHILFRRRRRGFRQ

[1] = biological target: 5HT2B serotonergic receptor (Homo sapiens, UniProt P41595); test: PDSP radioligand binding, 5HT2B; conditions: for inhibition at 10 µM: read-out: % inhibition at 10 µM; for Ki: full concentration-response curves, n = 3-6 unless noted
[2] = biological target: T3, 5HT1A serotonergic receptor (Homo sapiens, UniProt P08908); test: PDSP radioligand binding, 5HT1A; conditions: for inhibition at 10 µM: read-out: % inhibition at 10 µM
T3 sequence (P08908 1-422): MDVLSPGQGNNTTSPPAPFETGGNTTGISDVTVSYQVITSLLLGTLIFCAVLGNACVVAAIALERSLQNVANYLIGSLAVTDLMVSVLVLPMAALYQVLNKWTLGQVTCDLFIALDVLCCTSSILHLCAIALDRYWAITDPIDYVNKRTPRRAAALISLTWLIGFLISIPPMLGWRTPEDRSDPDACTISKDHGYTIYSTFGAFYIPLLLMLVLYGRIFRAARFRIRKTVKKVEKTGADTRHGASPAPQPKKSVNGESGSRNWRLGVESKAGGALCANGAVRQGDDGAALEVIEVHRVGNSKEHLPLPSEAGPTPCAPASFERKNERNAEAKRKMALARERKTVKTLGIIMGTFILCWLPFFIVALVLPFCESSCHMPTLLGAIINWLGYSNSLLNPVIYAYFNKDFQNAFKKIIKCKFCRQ

β3 adrenergic receptor = β3 adrenergic receptor (Homo sapiens, UniProt P13945); test: PDSP radioligand binding, β3; conditions: for Ki: full concentration-response curves, n = 3-6 unless noted; for inhibition at 10 µM: read-out: % inhibition at 10 µM
[3] = biological target: 5HT1E serotonergic receptor (Homo sapiens, UniProt P28566); test: PDSP radioligand binding, 5HT1E; conditions: read-out: % inhibition at 10 µM
D5 dopaminergic receptor = D5 dopaminergic receptor (Homo sapiens, UniProt P21918); test: PDSP radioligand binding, D5; conditions: read-out: % inhibition at 10 µM
α1B adrenergic receptor = biological target: T4, α1B adrenergic receptor (Homo sapiens, UniProt P35368); test: PDSP radioligand binding, α1B; conditions: read-out: % inhibition at 10 µM
T4 sequence (P35368 1-520): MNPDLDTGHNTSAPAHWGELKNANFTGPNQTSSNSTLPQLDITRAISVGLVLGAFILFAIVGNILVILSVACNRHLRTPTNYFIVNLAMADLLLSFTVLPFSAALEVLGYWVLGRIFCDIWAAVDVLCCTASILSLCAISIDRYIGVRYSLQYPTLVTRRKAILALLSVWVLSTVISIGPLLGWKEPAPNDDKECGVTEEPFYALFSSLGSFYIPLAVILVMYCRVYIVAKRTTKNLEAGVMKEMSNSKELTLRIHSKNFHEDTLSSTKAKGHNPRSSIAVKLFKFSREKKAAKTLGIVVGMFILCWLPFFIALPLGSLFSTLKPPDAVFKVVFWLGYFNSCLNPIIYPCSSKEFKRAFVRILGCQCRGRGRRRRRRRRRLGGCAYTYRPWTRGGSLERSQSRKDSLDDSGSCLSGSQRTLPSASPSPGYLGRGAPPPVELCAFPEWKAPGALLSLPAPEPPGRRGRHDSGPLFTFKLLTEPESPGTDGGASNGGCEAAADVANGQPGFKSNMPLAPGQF

[4] = biological target: peripheral benzodiazepine receptor (PBR) (Rattus norvegicus, UniProt P16257); test: PDSP radioligand binding, PBR; conditions: for inhibition at 10 µM: read-out: % inhibition at 10 µM; for Ki: full curves, n = 2
[5] = biological target: 5HT5A serotonergic receptor (Homo sapiens, UniProt P47898); test: PDSP radioligand binding, 5HT5A; conditions: for inhibition at 10 µM: read-out: % inhibition at 10 µM
[6] = biological target: 5HT7 serotonergic receptor (Homo sapiens, UniProt P34969); test: PDSP radioligand binding, 5HT7; conditions: for inhibition at 10 µM: read-out: % inhibition at 10 µM; for Ki: full curve, n = 1
5HT7 serotonergic receptor, sequence (P34969 whole entry): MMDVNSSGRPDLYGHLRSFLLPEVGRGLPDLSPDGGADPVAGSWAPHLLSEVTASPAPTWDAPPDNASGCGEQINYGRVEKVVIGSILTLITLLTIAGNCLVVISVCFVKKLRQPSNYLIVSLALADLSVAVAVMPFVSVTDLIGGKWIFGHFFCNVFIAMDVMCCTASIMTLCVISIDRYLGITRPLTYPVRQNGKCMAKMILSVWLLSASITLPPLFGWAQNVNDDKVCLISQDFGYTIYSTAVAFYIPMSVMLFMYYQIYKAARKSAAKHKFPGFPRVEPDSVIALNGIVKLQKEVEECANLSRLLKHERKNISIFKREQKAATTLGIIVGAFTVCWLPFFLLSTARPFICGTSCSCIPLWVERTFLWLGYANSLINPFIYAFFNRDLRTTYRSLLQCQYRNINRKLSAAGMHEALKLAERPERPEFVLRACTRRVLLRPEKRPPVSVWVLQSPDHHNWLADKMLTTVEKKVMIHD

β3 adrenergic receptor, sequence (P13945 whole entry): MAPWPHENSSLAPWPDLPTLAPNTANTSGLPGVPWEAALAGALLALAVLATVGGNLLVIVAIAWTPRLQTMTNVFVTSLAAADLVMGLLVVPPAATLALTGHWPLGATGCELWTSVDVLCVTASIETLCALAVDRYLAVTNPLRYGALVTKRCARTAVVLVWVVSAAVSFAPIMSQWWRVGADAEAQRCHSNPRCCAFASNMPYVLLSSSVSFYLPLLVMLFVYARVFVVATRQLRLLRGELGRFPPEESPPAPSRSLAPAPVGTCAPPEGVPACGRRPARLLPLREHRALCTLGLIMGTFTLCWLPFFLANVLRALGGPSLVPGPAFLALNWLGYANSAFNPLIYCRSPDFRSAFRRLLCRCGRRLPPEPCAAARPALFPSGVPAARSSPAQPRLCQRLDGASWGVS
D2 dopaminergic receptor, sequence (P14416 whole entry): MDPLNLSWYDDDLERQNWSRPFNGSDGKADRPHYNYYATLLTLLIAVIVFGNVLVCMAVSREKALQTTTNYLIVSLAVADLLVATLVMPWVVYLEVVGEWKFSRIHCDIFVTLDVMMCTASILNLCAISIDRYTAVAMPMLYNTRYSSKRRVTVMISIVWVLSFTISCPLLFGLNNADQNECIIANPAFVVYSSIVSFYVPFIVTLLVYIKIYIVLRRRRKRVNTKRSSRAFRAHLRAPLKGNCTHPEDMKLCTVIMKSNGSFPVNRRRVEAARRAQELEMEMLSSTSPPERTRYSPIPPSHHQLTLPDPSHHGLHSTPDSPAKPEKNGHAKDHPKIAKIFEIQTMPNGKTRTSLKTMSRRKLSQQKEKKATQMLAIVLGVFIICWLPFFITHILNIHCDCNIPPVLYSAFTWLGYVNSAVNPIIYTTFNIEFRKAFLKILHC
5HT2B serotonergic receptor, sequence (P41595 whole entry): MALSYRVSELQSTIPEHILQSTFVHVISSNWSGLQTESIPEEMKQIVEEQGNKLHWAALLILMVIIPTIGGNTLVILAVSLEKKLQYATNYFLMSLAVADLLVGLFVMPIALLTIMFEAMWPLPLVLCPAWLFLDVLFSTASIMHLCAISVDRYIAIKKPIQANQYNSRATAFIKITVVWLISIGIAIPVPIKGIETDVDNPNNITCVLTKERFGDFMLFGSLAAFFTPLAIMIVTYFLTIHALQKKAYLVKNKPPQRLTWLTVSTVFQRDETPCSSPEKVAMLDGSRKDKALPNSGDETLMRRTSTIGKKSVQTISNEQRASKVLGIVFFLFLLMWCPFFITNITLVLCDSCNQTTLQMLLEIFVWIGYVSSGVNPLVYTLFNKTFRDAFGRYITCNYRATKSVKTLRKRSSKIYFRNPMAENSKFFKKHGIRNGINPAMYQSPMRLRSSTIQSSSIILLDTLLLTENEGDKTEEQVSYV
D5 dopaminergic receptor, sequence (P21918 whole entry): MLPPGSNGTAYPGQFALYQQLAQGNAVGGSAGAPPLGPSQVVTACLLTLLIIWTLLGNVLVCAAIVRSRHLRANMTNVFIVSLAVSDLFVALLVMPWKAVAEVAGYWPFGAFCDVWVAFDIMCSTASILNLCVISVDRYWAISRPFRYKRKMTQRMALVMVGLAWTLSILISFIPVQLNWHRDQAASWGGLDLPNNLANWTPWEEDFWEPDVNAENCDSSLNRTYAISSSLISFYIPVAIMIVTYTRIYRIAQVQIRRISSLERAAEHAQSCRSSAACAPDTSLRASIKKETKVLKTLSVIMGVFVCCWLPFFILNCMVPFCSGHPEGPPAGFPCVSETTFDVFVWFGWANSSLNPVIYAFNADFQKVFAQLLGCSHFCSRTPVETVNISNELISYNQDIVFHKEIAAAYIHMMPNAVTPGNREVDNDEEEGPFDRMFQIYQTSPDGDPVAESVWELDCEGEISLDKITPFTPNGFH
5HT1E serotonergic receptor, sequence (P28566 whole entry): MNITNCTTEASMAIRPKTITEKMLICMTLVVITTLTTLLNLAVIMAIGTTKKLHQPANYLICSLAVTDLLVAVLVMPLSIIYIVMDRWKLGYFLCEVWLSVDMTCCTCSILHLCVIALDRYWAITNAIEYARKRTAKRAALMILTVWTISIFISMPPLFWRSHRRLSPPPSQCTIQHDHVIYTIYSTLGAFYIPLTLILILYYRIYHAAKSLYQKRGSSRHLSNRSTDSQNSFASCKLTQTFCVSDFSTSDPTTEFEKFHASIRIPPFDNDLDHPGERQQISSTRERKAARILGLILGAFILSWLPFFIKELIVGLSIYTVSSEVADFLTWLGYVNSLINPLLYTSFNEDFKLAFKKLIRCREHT
5HT5A serotonergic receptor, sequence (P47898 whole entry): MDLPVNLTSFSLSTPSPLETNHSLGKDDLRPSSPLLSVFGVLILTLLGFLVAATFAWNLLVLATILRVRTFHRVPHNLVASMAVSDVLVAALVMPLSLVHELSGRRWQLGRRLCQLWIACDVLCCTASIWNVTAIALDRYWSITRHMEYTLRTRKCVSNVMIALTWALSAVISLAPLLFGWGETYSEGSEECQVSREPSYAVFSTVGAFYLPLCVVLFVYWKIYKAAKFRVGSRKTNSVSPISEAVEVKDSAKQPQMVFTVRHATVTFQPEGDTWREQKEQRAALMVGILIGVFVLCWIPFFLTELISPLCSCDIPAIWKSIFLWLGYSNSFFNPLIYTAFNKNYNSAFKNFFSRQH

| Structure (SMILES) | inhibition at 10 µM (5HT3 ion channels; single concentration 10 µM) [%] | inhibition at 10 µM (D2 dopaminergic receptor; single concentration 10 µM) [%] | inhibition at 10 µM (α2C adrenergic receptor; single concentration 10 µM) [%] | inhibition at 10 µM [1] [%] | inhibition at 10 µM ([2]; single concentration 10 µM) [%] | Ki (β3 adrenergic receptor) [nM] | inhibition at 10 µM (β3 adrenergic receptor; single concentration 10 µM) [%] | inhibition at 10 µM ([3]; single concentration 10 µM) [%] | inhibition at 10 µM (D5 dopaminergic receptor; single concentration 10 µM) [%] | inhibition at 10 µM (α1B adrenergic receptor; single concentration 10 µM) [%] | inhibition at 10 µM ([4]; single concentration 10 µM) [%] | inhibition at 10 µM ([5]; single concentration 10 µM) [%] | inhibition at 10 µM ([6]; single concentration 10 µM) [%] | Ki (α2C adrenergic receptor) | inhibition at 10 µM ([1]; single concentration 10 µM) [%] | Ki [1] | also measured |
| --- | --- | --- | --- | --- | --- | --- | --- | --- | --- | --- | --- | --- | --- | --- | --- | --- | --- |
| CNC(=O)[C@@]12C[C@@H]1[C@@H](n1cnc3c(NC)nc(C#Cc4ccc(F)c(F)c4)nc31)[C@H](O)[C@@H]2O [Compound 5] | 2 | 18 | 13 | 4 | 10 | 2320 ± 390 | 22 | 9 | 6 | 11 | 25 | 5 | 0 | – | – | – | – |
| O[C@@H]1[C@H](O)[C@@H]2C[C@@H]2[C@H]1n1cnc2c(NCc3cccc(Cl)c3)nc(C#Cc3ccc(F)c(F)c3)nc21 [Compound 6] | 0 | 9 | 11 | – | 9 | 2460 ± 130 | 27 | 0 | 3 | 19 | 63 | 15 | 0 | 5400 ± 1220 nM | 34 | – | Ki [4]: 1700 nM |
| O[C@@H]1[C@H](O)[C@@H]2C[C@@H]2[C@H]1n1cnc2c(NCc3cccc(Cl)c3)ncnc21 [Compound 7] | 83 | 6 | 51 | – | 28 | – | 4 | 0 | 7 | 32 | 13 | 16 | 35 ± 2 | 5360 ± 1250 nM | 75 | 2220 ± 650 nM | Ki (5HT3 ion channels; full concentration-response curves, n = 3-6 unless noted): 3260 ± 800 nM; Ki [6]: 3920 nM |
| CNC(=O)[C@@]12C[C@@H]1[C@@H](n1cnc3c(NCc4cccc(Cl)c4)nc(C#Cc4ccc(F)c(F)c4)nc31)[C@H](O)[C@@H]2O [Compound 1] | – | – | – | 34 | – | 1450 ± 510 | – | – | – | – | – | – | – | 2040 ± 950 nM | – | 2580 ± 220 nM | inhibition at 10 µM (5HT3 ion channels): 3%; inhibition at 10 µM (D2 dopaminergic receptor): 0%; inhibition at 10 µM (α2C adrenergic receptor): 63%; Ki [2]: 7620 nM; inhibition at 10 µM [2]: 26%; inhibition at 10 µM (β3 adrenergic receptor): 74%; inhibition at 10 µM [3]: 12%; inhibition at 10 µM (D5 dopaminergic receptor): 13%; inhibition at 10 µM (α1B adrenergic receptor): 44%; inhibition at 10 µM [4]: 71%; inhibition at 10 µM [5]: 3%; inhibition at 10 µM [6]: 5% |
| CNC(=O)[C@@]12C[C@@H]1[C@@H](n1cnc3c(NCc4cccc(Cl)c4)nc(C#Cc4ccccc4Cl)nc31)[C@H](O)[C@@H]2O [Compound 3] | 50 | 0 | 57 | – | 6 | 1170 ± 190 | 57 | 0 | 10 | 7 | 87 | 29 | 8 | 1810 ± 250 nM | 55 | 3650 ± 1050 nM | Ki [4]: 344 ± 149 nM; Ki [5]: 6300 nM |
| Clc1cccc(CNc2nc(Cl)nc3[nH]cnc23)c1 [Compound 9] | 28 | 0 | 87 | – | 12 | – | 0 | 0 | 0 | 0 | 8 | 38 | 12 | 310 nM and 314 nM | 55 | 1780 ± 350 nM | Ki [5]: 4490 nM |
| CNC(=O)[C@@]12C[C@@H]1[C@@H](n1cnc3c(NCc4cccc(Cl)c4)nc(Cl)nc31)[C@H](O)[C@@H]2O [Compound 4] | 5 | 16 | 11 | – | 29 | – | 0 | 0 | 4 | 30 | 32 | 21 | 40 ± 7 | – | 95 | 75 ± 7 nM | Ki [6]: 7730 nM |
| O[C@@H]1[C@H](O)[C@@H]2C[C@@H]2[C@H]1n1cnc2c(NC(C3CC3)C3CC3)nc(Cl)nc21 [Compound 10] | 3 | 29 | 0 | 47 | 4 | – | 0 | 3 | 0 | 8 | 0 | 0 | 0 | – | – | 640 nM and 641 nM | – |
